Data reported in PubChem BioAssay (NCI).
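Tested at 5 concentrations; 48 h exposure; 96-well plates; endpoints linearly interpolated, else capped at highest concentration. TGI marks complete inhibition of growth.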

Assays:
Test in all cases: growth of human tumour cells (NCI), 48 h
HOP-92 NSCLC = tested on: HOP-92 NSCLC
K-562 leukemia = tested on: K-562 leukemia
M19-MEL melanoma = tested on: M19-MEL melanoma
OVCAR-3 ovarian = tested on: OVCAR-3 ovarian
OVCAR-5 ovarian = tested on: OVCAR-5 ovarian
SF-539 CNS = tested on: SF-539 CNS
SNB-78 CNS = tested on: SNB-78 CNS
SR leukemia = tested on: SR leukemia
OVCAR-4 ovarian = tested on: OVCAR-4 ovarian
DU-145 prostate = tested on: DU-145 prostate
PC-3 prostate = tested on: PC-3 prostate

COC(=O)n1c(C[P+](c2ccccc2)(c2ccccc2)c2ccccc2)cc2ccccc21
TGI (HOP-92 NSCLC): 3.34 µM | TGI (K-562 leukemia): 16.2 µM | TGI (M19-MEL melanoma): 13.1 µM | TGI (OVCAR-3 ovarian): 11.2 µM | TGI (OVCAR-5 ovarian): 8.66 µM | TGI (SF-539 CNS): 14.7 µM | TGI (SNB-78 CNS): 17.9 µM | TGI (SR leukemia): 25 µM

CC(=O)Nc1ccc(C(=O)N2N=C(C)/C(=C/c3ccc(O)cc3)C2=O)cc1
TGI (K-562 leukemia): > 100 µM | TGI (M19-MEL melanoma): > 100 µM | TGI (OVCAR-3 ovarian): > 100 µM | TGI (OVCAR-4 ovarian): > 100 µM | TGI (OVCAR-5 ovarian): > 100 µM | TGI (SF-539 CNS): > 100 µM | TGI (SNB-78 CNS): > 100 µM | TGI (SR leukemia): > 100 µM

O=c1c2c(nc3n1CCC3)sc1c(O)c(Br)ccc12
TGI (HOP-92 NSCLC): > 100 µM | TGI (K-562 leukemia): 59.2 µM | TGI (M19-MEL melanoma): 32.8 µM | TGI (OVCAR-3 ovarian): 36.7 µM | TGI (OVCAR-4 ovarian): 54.9 µM | TGI (OVCAR-5 ovarian): 51.7 µM | TGI (SF-539 CNS): 33 µM | TGI (SNB-78 CNS): > 100 µM | TGI (SR leukemia): 54 µM

Cc1cc(=O)[nH]c(NNC(C#N)c2ccc([N+](=O)[O-])cc2)n1 (stereo unspecified)
TGI (HOP-92 NSCLC): > 100 µM | TGI (K-562 leukemia): > 100 µM | TGI (M19-MEL melanoma): > 100 µM | TGI (OVCAR-3 ovarian): > 100 µM | TGI (OVCAR-4 ovarian): > 100 µM | TGI (OVCAR-5 ovarian): > 100 µM | TGI (SF-539 CNS): > 100 µM | TGI (SNB-78 CNS): > 100 µM | TGI (SR leukemia): > 100 µM

O=S1(=O)CCN(c2ccccc2CC(c2c[nH]c3ccccc23)c2c[nH]c3ccccc23)CC1
TGI (DU-145 prostate): 35.4 µM | TGI (HOP-92 NSCLC): 25.3 µM | TGI (K-562 leukemia): 45.1 µM | TGI (M19-MEL melanoma): 23 µM | TGI (OVCAR-3 ovarian): 20.9 µM | TGI (OVCAR-4 ovarian): > 63.7 µM | TGI (OVCAR-5 ovarian): 54.9 µM | TGI (PC-3 prostate): 13.2 µM | TGI (SF-539 CNS): 32 µM | TGI (SNB-78 CNS): 74.3 µM | TGI (SR leukemia): 20.1 µM

Cc1cc2n([O-])cccc-2[n+](=O)c1
TGI (HOP-92 NSCLC): > 100 µM | TGI (K-562 leukemia): > 100 µM | TGI (M19-MEL melanoma): > 100 µM | TGI (OVCAR-3 ovarian): > 100 µM | TGI (OVCAR-4 ovarian): > 100 µM | TGI (OVCAR-5 ovarian): > 100 µM | TGI (SF-539 CNS): > 100 µM | TGI (SNB-78 CNS): > 100 µM | TGI (SR leukemia): > 100 µM

O=C(OCc1ccccc1C1CSCSC1)c1cc(C(=O)OCc2ccccc2C2CSCSC2)c(C(=O)OCc2ccccc2C2CSCSC2)cc1C(=O)OCc1ccccc1C1CSCSC1
TGI (HOP-92 NSCLC): > 100 µM | TGI (K-562 leukemia): > 100 µM | TGI (M19-MEL melanoma): > 100 µM | TGI (OVCAR-3 ovarian): > 100 µM | TGI (OVCAR-4 ovarian): > 100 µM | TGI (OVCAR-5 ovarian): > 100 µM | TGI (SF-539 CNS): > 100 µM | TGI (SNB-78 CNS): > 100 µM | TGI (SR leukemia): > 100 µM

CC1(C)COC(c2c(-c3ccccc3)noc2CS(=O)c2ccccc2)=N1 (stereo unspecified)
TGI (K-562 leukemia): > 100 µM | TGI (M19-MEL melanoma): > 100 µM | TGI (OVCAR-3 ovarian): > 100 µM | TGI (OVCAR-4 ovarian): > 100 µM | TGI (OVCAR-5 ovarian): > 100 µM | TGI (SF-539 CNS): > 100 µM | TGI (SNB-78 CNS): > 100 µM | TGI (SR leukemia): > 100 µM
